Results published in patent publication US8476306B2, “Urokinase inhibitors, production and use thereof” (The Medicines Company (Leipzig) GmbH, priority 2002, dated 2013).
Where a name gives a salt, the structure may show the parent alone.

Key:
sc urokinase = sc urokinase (Homo sapiens (Human), UniProt P00749); assay: Inhibiting urokinase with 4-amidinobenzylamide compounds (chromogenic substrate Bzl-βAla-Gly-Arg-pNA, Dixon Ki); assay type: biochemical; conditions: 25° C., pH 8.0, means of at least three determinations
From the text: Determining the Inhibitory Effect
The Ki values are the means of at least three determinations.

thrombin = thrombin (Homo sapiens (Human), UniProt P00734); assay: Inhibition constants for thrombin, determined in analogy to uPA; assay type: biochemical
plasmin = plasmin (Homo sapiens (Human), UniProt P00747); assay: Inhibition constants for plasmin, determined in analogy to uPA; assay type: biochemical
Chain of plasmin (P00747 581-810, species assumed): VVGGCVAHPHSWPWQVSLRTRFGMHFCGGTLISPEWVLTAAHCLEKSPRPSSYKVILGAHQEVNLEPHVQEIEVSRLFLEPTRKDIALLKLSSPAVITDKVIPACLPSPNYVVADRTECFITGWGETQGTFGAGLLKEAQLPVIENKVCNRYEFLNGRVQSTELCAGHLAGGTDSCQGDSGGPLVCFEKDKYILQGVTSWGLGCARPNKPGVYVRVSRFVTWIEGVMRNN
Chain of plasmin (P00747 97-580 partner, species assumed): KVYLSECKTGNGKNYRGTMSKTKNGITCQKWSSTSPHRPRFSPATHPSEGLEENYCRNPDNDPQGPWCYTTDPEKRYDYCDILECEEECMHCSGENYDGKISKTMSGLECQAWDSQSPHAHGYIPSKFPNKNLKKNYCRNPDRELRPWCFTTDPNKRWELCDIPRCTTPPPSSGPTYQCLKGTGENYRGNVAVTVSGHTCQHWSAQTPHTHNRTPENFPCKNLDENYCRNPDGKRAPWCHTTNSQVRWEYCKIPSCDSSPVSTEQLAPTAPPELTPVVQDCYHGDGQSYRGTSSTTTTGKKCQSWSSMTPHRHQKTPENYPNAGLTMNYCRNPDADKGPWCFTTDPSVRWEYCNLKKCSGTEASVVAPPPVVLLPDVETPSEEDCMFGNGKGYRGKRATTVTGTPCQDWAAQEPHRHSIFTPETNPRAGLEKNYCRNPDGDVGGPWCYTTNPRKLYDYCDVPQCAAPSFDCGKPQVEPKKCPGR

uPA = uPA (Homo sapiens (Human), UniProt P00749); assay: Inhibition constants for uPA, determined as in Stürzebecher et al. 1997; assay type: biochemical
[1] = Elimination (β phase) half-life in rats after intravenous administration, plasma levels by HPLC; conditions: for half-life: female, Wistar, rat, plasma, iv, 1 mg/kg; for elimination (β phase) half-life t1/2: rats, intravenous administration 1 mg/kg
Experimental: Female Wistar rats (240-300 g body weight) were anesthetized (ethylurethane, 2.5 g/ml in NaCl, 0.5 ml/100 g rat), after which the A. carotis located in the neck was exposed. A catheter inserted into this vessel enabled blood to be removed at specified times. The volume administered was 0.5 ml, while 0.9% NaCl was used as the administration solution. […] The resultant loss of blood was offset, immediately after removal of the sample, with 500 μl of 0.9% NaCl solution. Citrate plasma was obtained by centrifuging the blood at 1200×g for 10 min.

trypsin [2] = assay: Inhibition constants for trypsin, determined in analogy to uPA; assay type: biochemical
Chain of trypsin (P00760 24-246 limits assumed): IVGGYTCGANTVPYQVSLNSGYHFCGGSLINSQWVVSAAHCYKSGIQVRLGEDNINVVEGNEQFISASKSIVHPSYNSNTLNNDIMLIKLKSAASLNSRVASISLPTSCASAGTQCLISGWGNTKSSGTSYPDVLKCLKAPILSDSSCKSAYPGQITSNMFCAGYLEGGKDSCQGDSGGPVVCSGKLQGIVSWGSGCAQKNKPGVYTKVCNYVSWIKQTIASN

[3] = test system: lacZ-labeled human fibrosarcoma cell line (HT1080 AN PKZ12 K15-1); assay: Inhibiting metastasis in an animal model (lung metastases, lacZ-labeled human fibrosarcoma cells i.v.); assay type: in vivo, mice (strain CD1 nu/nu); conditions: mice, 2 i.p. doses of 1.5 mg/kg daily from day −1 to day 21, lungs evaluated on day 22
Experimental: The influence of the inhibitor benzylsulfonyl-dSer-Ser-4-amidinobenzylamide on metastasis was investigated in female mice (strain CD1 nu/nu, approx. 25 g body weight, Charles River, Sulzfeld). […] from a lacZ-labeled human fibrosarcoma cell line (HT1080 AN PKZ12 K15-1, dissolved in 200 μl of PBS) were administered to the mice i.v. (Krüger et al., Cancer Metastasis Rev. 1998-99, 17, 285-294 and Krüger et al., Oncogene 1998, 16, 2419-2423). The mice in the treated group (n=17) were given 2 i.p. doses (in each case 1.5 mg/kg) of the inhibitor daily from day −1 (one day before the tumor cell inoculation) through to the 21st day (a total of 23 days). The mice in the control group (n=10) were correspondingly given 200 μl of pyrogen-free water containing 5% (v/v) ethanol. On day 22, the mice were sacrificed and the lungs were fixed in 2% formalin and 0.2% glutaraldehyde; after that, the lungs were stained with X-Gal (5-Br-4-Cl-3-indolyl-β-D-galactoside) and the number of lung metastases was determined.

[4] = after s.c. administration; following acylation of the D-Ser hydroxyl; cited from earlier work
trypsin [5] = biological target: trypsin (Bos taurus, UniProt P00760); assay: Inhibition constants for trypsin, determined in analogy to uPA; assay type: biochemical
Chain of trypsin (Bos taurus, UniProt P00760) (P00760 24-246 limits assumed): as above

Ki (sc urokinase) [nM]	Ki (thrombin) [nM]	Ki (plasmin) [nM]	Ki (uPA) [nM]	half-life [1] [min]	Ki (trypsin [2]) [nM]	elimination (β phase) half-life t1/2 [1] [min]	Ki (trypsin [5]) [nM]	Compound	number of lung metastases as compared with the control group (100%) [3] [%]	relative bioavailability [4] [%]
860								N=C(N)c1ccc(CNC(=O)[C@H](CC(=O)O)NC(=O)[C@@H](CO)NS(=O)(=O)Cc2ccccc2)cc1		
	56000	220000	370		2400			N=C(N)c1ccc(CNC(=O)CNC(=O)[C@@H](CO)NS(=O)(=O)Cc2ccccc2C(=O)O)cc1 [R=2-COOH, X=CH, R1=H]		
	4000	38000	83		400			COC(=O)c1ccccc1CS(=O)(=O)N[C@H](CO)C(=O)NCC(=O)NCc1ccc(C(=N)N)cc1 [R=2-COOMe, X=CH, R1=H]		
	8300	32000	110		600			N=C(N)c1ccc(CNC(=O)CNC(=O)[C@@H](CO)NS(=O)(=O)Cc2ccc(Cl)c(Cl)c2)cc1 [R=3,4-di-Cl, X=CH, R1=H]		
	200000	4200	75		58	25.8		N=C(N)c1ccc(CNC(=O)[C@H](CO)NC(=O)[C@@H](CO)NS(=O)(=O)Cc2cccc(C(=O)O)c2)cc1 [R=3-COOH, X=CH, R1=CH2—OH]		
	150000	59000	160	78				N=C(N)c1ccc(CNC(=O)CNC(=O)[C@@H](CO)NS(=O)(=O)Cc2cccc(C(=O)O)c2)cc1.O=C(O)C(F)(F)F [R=3-COOH, X=CH, R1=H, 3-(HOOC)Benzylsulfonyl-dSer-Gly-4-amidinobenzylamide×TFA]		
	42000	28000	120		290			COC(=O)c1cccc(CS(=O)(=O)N[C@H](CO)C(=O)NCC(=O)NCc2ccc(C(=N)N)cc2)c1 [R=3-COOMe, X=CH, R1=H]		
	8000	7400						N=C(N)c1ccc(CNC(=O)CNC(=O)[C@@H](CO)NS(=O)(=O)Cc2ccc(CN)cc2)cc1 [R=4-(NH2—CH2), X=CH, R1=H, 4-(Aminomethyl)benzylsulfonyl-dSer-Gly-4-amidinobenzylamide×2 TFA]		
	8500	27000	89		340			N#Cc1ccc(CS(=O)(=O)N[C@H](CO)C(=O)NCC(=O)NCc2ccc(C(=N)N)cc2)cc1 [R=4-CN, X=CH, R1=CH]		
	2300	3000	38		13	39.6		C[C@H](NC(=O)[C@@H](CO)NS(=O)(=O)Cc1ccc(C(=O)O)cc1)C(=O)NCc1ccc(C(=N)N)cc1 [R=4-COOH, X=CH, R1=CH3]		
	170000	35000	150		480	120		N=C(N)c1ccc(CNC(=O)CNC(=O)[C@@H](CO)NS(=O)(=O)Cc2ccc(C(=O)O)cc2)cc1 [R=4-COOH, X=CH, R1=H]		
	9400	17000	620		180			COC(=O)c1ccc(CS(=O)(=O)N[C@H](CO)C(=O)NCC(=O)NCc2ccc(C(=N)N)cc2)cc1 [R=4-COOMe, X=CH, R1=H]		
	7900	32000	32		350			N=C(N)c1ccc(CNC(=O)CNC(=O)[C@@H](CO)NS(=O)(=O)Cc2ccc(Cl)cc2)cc1 [R=4-Cl, X=CH, R1=H]		
	100	1100	61		11			CC(OCc1ccccc1)[C@H](NC(=O)[C@@H](CO)NS(=O)(=O)Cc1ccccc1)C(=O)NCc1ccc(C(=N)N)cc1 (stereo partly drawn) [R=H, X=CH, R1=CH(OBzl)CH3]		
	4000	1400	110		30			CC(O)[C@H](NC(=O)[C@@H](CO)NS(=O)(=O)Cc1ccccc1)C(=O)NCc1ccc(C(=N)N)cc1 (stereo partly drawn) [R=H, X=CH, R1=CH(OH)CH3]		
	4300	360		42				N=C(N)c1ccc(CNC(=O)[C@H](CCCCN)NC(=O)[C@@H](CO)NS(=O)(=O)Cc2ccccc2)cc1 [X=Lys, Benzylsulfonyl-dSer-Lys-4-amidinobenzylamide×2 TFA]		

Second part, the compound before the results:

Compound	Ki (sc urokinase) [nM]	Ki (thrombin) [nM]	Ki (plasmin) [nM]	Ki (uPA) [nM]	half-life [1] [min]	Ki (trypsin [2]) [nM]	elimination (β phase) half-life t1/2 [1] [min]	Ki (trypsin [5]) [nM]	number of lung metastases as compared with the control group (100%) [3] [%]	relative bioavailability [4] [%]
N=C(N)c1ccc(CNC(=O)[C@H](CCC(=O)O)NC(=O)[C@@H](CO)NS(=O)(=O)Cc2ccccc2)cc1 [Benzylsulfonyl-D-Ser-Glu-4-amidinobenzylamide×TFA]	160									
N=C(N)c1ccc(CNC(=O)[C@H](CCCCNC(=O)COCC(=O)NCCOCCOCCOCCOCCOCCOCCOCCN)NC(=O)[C@@H](CO)NS(=O)(=O)Cc2ccccc2)cc1 [Example 10, Bzls-dSer-Lys(CO—CH2—O—CH2—CO—NH—CH2—CH2-Hexaethylene-glycol-CH2—CH2—NH2)-4-amidinobenzylamide×2 TFA]		1400	530	42	52.8					
N=C(N)c1ccc(CNC(=O)CNC(=O)[C@@H](CN)NS(=O)(=O)Cc2ccccc2)cc1 [Example 11, Benzylsulfonyl-dDap-Gly-4-Amba]		10000	9600	180		180				
N=C(N)c1ccc(CNC(=O)[C@H](Cc2cnc[nH]2)NC(=O)[C@@H](CO)NS(=O)(=O)Cc2ccccc2)cc1 [Example 12, Benzylsulfonyl-dSer-His-4-Amba]		8500	400	110		25				
N=C(N)c1ccc(CNC(=O)CNC(=O)[C@@H](CO)NS(=O)(=O)Cc2ccc(CC(=O)O)cc2)cc1 [Example 13, 4(HOOC—CH2)Benzylsulfonyl-dSer-Gly-4-Amba]		60000	27000	130		300				
C[C@H](NC(=O)[C@@H](CO)NS(=O)(=O)Cc1cccc(C(=O)O)c1)C(=O)NCc1ccc(C(=N)N)cc1 [R=3-COOH, X=CH, R1=CH3]		8300	4700	30		21	25.2			
N=C(N)c1ccc(CNC(=O)[C@H](CO)NC(=O)[C@@H](CO)NS(=O)(=O)Cc2ccc(C(=O)O)cc2)cc1 [R=4-COOH, X=CH, R1=CH2—OH]		120000	6200	230		100	25.8			
COC(=O)c1ccc(CS(=O)(=O)N[C@H](CO)C(=O)N[C@@H](CO)C(=O)NCc2ccc(C(=N)N)cc2)cc1 [R=4-COOMe, X=CH, R1=CH2—OH]		4200	960	230		20				
N=C(N)c1ccc(CNC(=O)CNC(=O)[C@@H](CO)NS(=O)(=O)Cc2ccc(F)cc2)cc1 [R=4-F, X=CH, R1=H]		7900	20000	31		110				
Cc1ccc(CS(=O)(=O)N[C@H](CO)C(=O)NCC(=O)NCc2ccc(C(=N)N)cc2)cc1 [R=4-Me, X=CH, R1=H]		8000	18000	58		210				
N=C(N)c1ccc(CNC(=O)[C@H](CN)NC(=O)[C@@H](CO)NS(=O)(=O)Cc2ccccc2)cc1 [R=H, X=CH, R1=CH2—NH2]		780	810	36		21	24			
N=C(N)c1ccc(CNC(=O)[C@H](COCc2ccccc2)NC(=O)[C@@H](CO)NS(=O)(=O)Cc2ccccc2)cc1 [R=H, X=CH, R1=CH2—O(Bzl)]		480	270	28		6.8				
N=C(N)c1ccc(CNC(=O)[C@H](CO)NC(=O)[C@@H](CO)NS(=O)(=O)Cc2ccccc2)cc1 [R=H, X=CH, R1=CH2—OH, Benzylsulfonyl-dSer-Ser-4-amidinobenzylamide×TFA]		14000	750	25	30				4.6	
N=C(N)c1ccc(CNC(=O)CNC(=O)[C@@H](CO)NS(=O)(=O)Cc2ccccc2)cc1 [R=H, X=CH, R1=H, Benzylsulfonyl-D-Ser-Gly-4-amidinobenzylamide]		13000	11000			150	17.4			
N=C(N)c1ccc(CNC(=O)[C@H](CCCN=C(N)N)NC(=O)[C@@H](CO)NS(=O)(=O)Cc2ccccc2)cc1 [X=Arg, Benzylsulfonyl-dSer-Arg-4-amidinobenzylamide×2 TFA]		4700	200		36					
CC(C)COC(=O)N[C@H](CO)C(=O)N[C@@H](C)C(=O)N[C@H](C=O)CCCNC(=N)N [iBuOCO-D-Ser-Ala-Arg-H]										87
Benzylsulfonyl-dSer-Lys(CO—O-PEG5000-OMe)-4-amidinobenzylamide×Acetate [Example 9]		1700	730	95				34		
